Series [1] concerns optic nerve of cuprizone-fed mice. The series can be described thus: Visual evoked potentials (VEP) in cuprizone-fed mice with or without OPC transplant. In kind it is in vivo. The method, then: (§1) Cuprizone is a copper chelator, which causes apoptosis of mature oligodendroglia, followed by microglial recruitment, and phagocytosis of myelin. Demyelination was induced by feeding mice a diet containing 0.3% cuprizone for 9 weeks. […] Peak demyelination occurred at 6-7 weeks with spontaneous remyelination occurring 2-4 weeks after transition to regular diet. Efficacy of OPC transplants upon reintroduction of regular diet was evaluated. Assessment of remyelination following transplant was performed as described elsewhere (Deb et al., PLoS One, 5:e12478 (2010)). Briefly, semi-thin sections of optic nerves were stained with para-phenylenediamine, imaged at 100× magnification following a predetermined sampling scheme, and analyzed using automated ImageJ macros to measure myelinated fibers.
Maintaining a sterile field, 1.0 μL of media containing >10^4 OPCs were injected into the vitreous humor of anesthetized mice, using a custom 34-gauge needle mounted on a 5 μL Hamilton syringe. Despite the small dimensions of the murine eye and the high needle gauge, OPCs were consistently and reproducibly delivered into the vitreous cavity with this method, and transferred cells were imaged using fluorescent fundus imaging of the mouse eye (evidence from >30 mice; data not included) (FIG. 6A).
To measure the functional outcomes of OPC transplantation, VEPs were recorded. Intracranial supradural screw electrodes (plastics1.com 8L0X3905201F) were implanted over the visual cortex as described elsewhere (Deb et al., (2010) PLoS One 5:e12478) (FIG. 4I-4K). After dark adaptation, mice were placed in a recording chamber connected to a recording system (8200-K1-SE3, Pinnacle Technology) using an implanted EEG headmount (8235-SM, Pinnacle Tech) tethered to a preamplifier (8202-SE3, Pinnacle Tech) and an analog-to-digital converter. Mice were visually stimulated by an on-axis flashing LED. VEPs were recorded with varying stimulus blocks from 0.1 Hz to 1000 Hz (controlled via a programmable Arduino Diecimila). Recording parameters measured latency to N1 (the first negative peak following stimulation), amplitude range between Nmax-Pmax (first positive peak after stimulation), number of stimuli not followed by a response, duration of visual evoked response, pulse width of Pmax. Any delay in conduction velocity through the optic nerve increased time to N1, whereas axonal degeneration led to decrease in amplitude range, and an increase in response duration as well as increased pulse width due to non-synchronous firing of neurons, providing a very sensitive measure of optic nerve function.
Mice were subjected to electrode implantation surgery and either received OPC transplant or served as controls (FIGS. 7A-C), and visual evoked potential (VEP) averaging was used to establish measurements of evoked potential amplitude, latency, and peak pulse-width (FIG. 7D). Representative waveforms of VEP recordings in a healthy control animal (FIG. 7E), cuprizone-fed animal (FIG. 7F), and cuprizone-fed animal transplanted with OPCs (FIG. 7G). Latency was measured as the time from the visual stimulus to the first negative peak in the VEP impulse (FIG. 7H). An increased latency indicated decreased conduction velocity as a result of loss of myelin and Nodes of Ranvier. […] Peak width was measured as the duration of the first positive impulse at half-maximum amplitude. […]

Series [2] relates to murine optic nerves. Particulars: mice on diet containing 0.3% cuprizone; cited from earlier work.
In series [3] the test system is murine optic nerves. Kind of series: PPD staining and electron microscopy of optic nerve sections, cuprizone demyelination and remyelination after OPC transplant. In kind it is in vivo, mice. The procedure: as §1
For collection of optic nerves and brain tissue, mice were perfused with 4% paraformaldehyde or Trump's fixative, and CNS tissues were post-fixed in the respective solution for 24 hours.
Cuprizone is a copper chelator that causes apoptosis of mature oligodendroglia, followed by microglial recruitment and phagocytosis of myelin. Demyelination was induced by feeding mice a diet containing 0.3% cuprizone for 9 weeks. […] Peak demyelination occurs at 6-7 weeks with spontaneous remyelination occurring 2-4 weeks after transition to regular diet. […] Optical coherence tomography (OCT) provided quantitative assessment of neuroretinal integrity. The retinal layers measured along the green line in FIG. 4E in a healthy mouse (FIG. 4F). Note the clear retinal nerve fiber layer (RNFL), as outlined in FIG. 4H. The retinal layers measured along the yellow line in FIG. 4E in a healthy mouse (FIG. 4G). Note the thick ganglion cell layer (GCL), as outlined in FIG. 4H. Head mount surgery for placement of VEP electrodes and recording locations (FIG. 4I-K). Visual evoked potentials (VEPs) measured in the visual cortex induced by a 0.3 Hz light pulse (FIG. 4L). […] VEP averaging is used to establish measurements of evoked potential amplitude, latency, and pulse width (FIG. 4M). […]

Where [4] appears, read: 0.3 Hz stimulation frequency, cuprizone-fed animal compared to regular diet (FIG. 4N).

The values that follow come from patent US20240075073A1, “TREATING OPTIC NEURITIS WITH INDUCED PLURIPOTENT STEM CELL-DERIVED OLIGODENDROCYTE PRECURSOR CELLS” (Mayo Foundation for Medical Education and Research, priority 2016, published 2024).

Entries after “also recorded” stand apart in the source; their conditions may differ.

Regarding `O=C(NN=C1CCCCC1)C(=O)NN=C1CCCCC1` [cuprizone], in series [1] (setting [4]), the “failure to transmit impulses in VEP recording” value is reported as “increased failure to transmit impulses” and the “latency to N1 in VEP recording from visual cortex” value is recorded as “increased latency to N1”. The “average latency (time from visual stimulus to first negative peak in the VEP impulse)” value in series [1] (after cuprizone treatment for nine weeks, no transplant, healthy baseline 276 ms, n=5) came out at 371 ms. The “peak width, shortest half for peak width values” in series [1] (after demyelination with cuprizone, no transplant, n=5) was “increased”. Further, the “number of missed responses” value in series [1] (cuprizone-fed animals, no transplant, n=5) is recorded as “greatly increased”. For the same molecule, in the series on murine optic nerves [2], the “time of peak demyelination” value is recorded as 6-7 weeks. Further, the “optic nerve myelination, PPD staining of semi-thin sections” value in the series with murine optic nerves [3] (after 6 weeks of cuprizone treatment) is “profound demyelination”. Also, the “optic nerve myelination, PPD staining of semi-thin sections” value in the series on murine optic nerves [3] (after 9 weeks of cuprizone treatment) was “profound demyelination”. The “myelin layers in electron micrographs of thin optic nerve cross sections” value in the series with murine optic nerves [3] (cuprizone-treated animals, no transplant) is “thinning and disorganization of myelin layers; also recorded: thinning, and disorganization of myelin layers”.
